{"source": "patent US20160279190A1", "about": "“MODULATION OF AXON DEGENERATION” (GENENTECH, INC., priority 2008, published 2016)", "key": {"DRGs": {"test_system": "DRGs", "experiment": "anti-NGF antibody (NGF withdrawal) screen for inhibitors of neuron or axon degeneration", "format": "cell-based, mouse", "conditions": "inhibitor 100 μM or 10 μM added 1 hour before 25 μg/ml anti-NGF antibodies; 20 hours; actin staining", "procedure": "The anti-NGF antibody model described above in Example 1 was used in a screen for inhibitors of neuron or axon degeneration. A library of more than 400 small molecules (Tocris Bioscience) was tested to see which, if any, modulate degeneration observed in the presence of anti-NGF antibodies.\nMouse E13.5 embryos were dissected and placed into L15 medium (Invitrogen). The spinal cord was dissected out from the embryos with DRGs attached. The spinal cords with DRGs attached were placed into L15 medium+5% goat serum (Gibco) on ice. The DRGs were removed using a tungsten needle and the remaining spinal cord was disposed of. Eight well slides were filled with N3-F12 solution (23 ml Ham's F12, 1 ml N3 supplement, and 1 ml 1 M glucose) to which was added 25 ng/ml NGF (Roche). (N3 supplement was made by dilution of N3 100× concentrate, which was made by mixing the following ingredients, in the following order: 5.0 ml Hank's buffered saline solution (HBSS; Ca, Mg free; Invitrogen), 1.0 ml bovine serum albumin (10 mg/ml in HBSS=150 μm), 2.0 ml Transferrin (T1147-1G, human, 100 mg/ml in HBSS=1.1 mM), 1.0 ml sodium selenite (S9133-1MG, 0.01 mg/ml in HBSS=58 μM), 0.4 ml putrescine dihydrochloride (P5780-5G, 80 mg/ml in HBSS=500 mM), 0.2 ml progesterone (P8783-5G, 0.125 mg/ml in absolute ethanol=400 μM), 0.02 ml corticosterone (C2505-500MG, 2 mg/ml in absolute ethanol=5.8 mM), 0.1 ml triiodothyonine, sodium salt (T6397-100MG, 0.2 mg/ml in 0.01 N NaOH=300 μM), 0.4 ml insulin (16634-250MG, bovine pancreas, 241 U/mg, 25 mg/ml in 20 mM HCl=4.4 mM), for a total volume of 10.02 ml (can be stored at −20° C.). An N3 supplement stock was made by combining the following: 10 ml Pen/Strep (100×, Gibco), 10 ml glutamine (200 mM, Gibco), 10 ml MEM vitamins (100×, Gibco), 10 ml N3 concentrate (100×, see above), for a total volume of 40 ml. The mixture was filter sterilized using a 0.22 μm filter, and 1-2 ml aliquots were stored at −20° C.).\nThe DRGs were sectioned into halves, and placed in the center of each well of an 8-chamber slide (BD Biocoat PDL/Laminin coated glass, Becton Dickinson). The DRGs were permitted to attach to the slide at room temperature for 5-10 minutes, followed by an overnight incubation at 37° C. Inhibitors of choice were added at a concentration of 100 μM (top row) or 10 μM (bottom row) 1 hour before adding anti-NGF antibodies. The anti-NGF antibodies were added to the right half of the slide (4 wells) at a concentration of 25 μg/ml. After incubation for 20 hours at 37° C., the slides were fixed with 30% sucrose/8% paraformaldehyde (PFA) by adding 250 μl of the fix solution directly to the 250 μl of culture medium. (To make the 30% sucrose/8% PFA solution, the following ingredients were added to a 600 ml beaker including a stir bar: 250 ml 16% PFA (cat#15710-S, Electron Microscopy Sciences), 50 ml 10×PBS pH 7.4, and 150 g sucrose. The solution was mixed under low heat until dissolved, and then 6-8 drops of 1 M NaOH were added to bring the pH to 7.4. The volume was then brought to 500 ml with water in a graduated cylinder. The solution was mixed well, placed in aliquots, and frozen.) The slides were fixed for 30 minutes, followed by washing once with PBS. All cells were labeled with an actin stain (Alexa-568 conjugated phalloidin; 1:40; Invitrogen), a membrane dye (DiO; 1:200; Invitrogen), and a DNA stain (Hoechst 33258; 1:10,000; Invitrogen) in 0.1% Triton and 1% goat serum for 2 hours at room temperature. […]"}, "CaMKK": {"test_system": "CaMKK", "conditions": "CaMKK activity after ionomycin stimulation, transfected HeLa cells; published source (footnote e, cell marked c); read-out: Cellular IC50; cited from earlier work"}}, "data": [{"molecule": "O=C(O)c1ccc2c3c1cccc3c(=O)n1c3ccccc3nc21", "note": "[STO-609]", "values": [{"measurement": "Comments (observations on protection against neurodegeneration upon NGF withdrawal)", "setting": "DRGs", "value": "Partial"}, {"measurement": "IC50", "setting": "CaMKK", "value": 3000, "unit": "nM"}]}]}
